Assay results taken from patent publication US10874646B2, “Epothilone analogs, methods of synthesis, methods of treatment, and drug conjugates thereof” (WILLIAM MARSH RICE UNIVERSITY, priority 2015, dated 2020).
Where two headings read alike, the source gives them in different places.

Tests used:
[1] = tested on: OVCAR-8; assay: Cytotoxicity, standard NCI assay with sulforhodamine B, 96 h; details: for GI50: read-out: cytotoxicity (GI50, nM ± SD) OVCAR-8; for IC50: read-out: Cytotoxicity (nM, ± SD) OVCAR-8
[2] = tested on: MCF-7; assay: as above; details: for GI50: read-out: cytotoxicity (GI50, nM ± SD) MCF-7; for IC50: read-out: Cytotoxicity (nM, ± SD) MCF-7
[3] = tested on: tubulin; assay: Induction/enhancement of tubulin assembly (Lin, et al., 1996); assay type: biochemical; details: 10 μM tubulin, 0.4M monosodium glutamate, 30 min at room temperature
[4] = tested on: NCI/ADR-RES; assay: Cytotoxicity, standard NCI assay with sulforhodamine B, 96 h; assay type: cell-based, human; details: read-out: Cytotoxicity (nM, ± SD) NCI/ADR-RES
[5] = tested on: MDA-MB-435; assay: as above; assay type: cell-based, human; details: read-out: Cytotoxicity (nM, ± SD) MDA-MB-435
[6] = tested on: SNB-75; assay: as above; assay type: cell-based, human; details: read-out: Cytotoxicity (nM, ± SD) SNB-75
[7] = Table 2, read-out: induction of tubulin assembly (EC50, μM ± SD)
[8] = Homo sapiens, NCI/ADR-RES, 96 h
[9] = Table 3, read-out: Enhancement of tubulin assembly (EC50)
[10] = OVCAR-8, IC50, 96 h at 37° C., Table 3
[11] = OVCAR-8, 96 h at 37° C., Table 2
[12] = NCI/ADR-RES (overexpresses P-glycoprotein), IC50, 96 h at 37° C., Table 3
[13] = MDA-MB-435, IC50, 96 h at 37° C., Table 3
[14] = MCF-7, IC50, 96 h at 37° C., Table 3
[15] = SNB-75, IC50, 96 h at 37° C., Table 3

Structure (SMILES)	EC50 [3, 7]	IC50 ([1]; Homo sapiens, OVCAR-8, 96 h)	IC50 [4, 8]	IC50 ([2]; Homo sapiens, MCF7, 96 h)	EC50 [3, 9]	IC50 ([5]; Homo sapiens, MDA-MB-435, 96 h)	IC50 ([6]; Homo sapiens, SNB-75, 96 h)	further results
C/C(=C\c1ccn(-c2ccc(N)cc2C(F)(F)F)n1)[C@@H]1C[C@@H]2O[C@]2(C)CCC[C@H](C)[C@H](O)[C@@H](C)C(=O)C(C)(C)[C@@H](O)CC(=O)O1 [Compound 13]	> 40 µM	–	–	–	–	–	–	GI50 ([1]; Homo sapiens, OVCAR-8, 96 h): 35 ± 5 nM; GI50 ([2]; Homo sapiens, MCF7, 96 h): 9 ± 1 nM
C/C(=C\c1csc(C)n1)[C@@H]1C[C@@H]2N[C@]2(C)CCC[C@H](C)[C@H](O)[C@@H](C)C(=O)C(C)(C)[C@@H](O)CC(=O)O1 [Compound 70]	–	1.5 ± 0.7 nM	35 ± 7 nM	2 nM	19 µM	–	–	–
C/C(=C\c1csc(C)n1)[C@@H]1C[C@@H]2N(CCO)[C@]2(C)CCC[C@H](C)[C@H](O)[C@@H](C)C(=O)C(C)(C)[C@@H](O)CC(=O)O1 (stereo partly shown) [Compound 71]	–	4.5 ± 0.7 nM	55 ± 20 nM	3 ± 1 nM	18.2 µM	–	–	–
C/C(=C\c1ccccn1)[C@@H]1C[C@@H]2N(CCO)[C@]2(C)CCC[C@H](C)[C@H](O)[C@@H](C)C(=O)C(C)(C)[C@@H](O)CC(=O)O1 (stereo partly shown) [Compound 73]	–	170 ± 20 nM	4000 nM	250 ± 40 nM	> 60 µM	30 ± 4 nM	98 ± 10 nM	–
C/C(=C\c1nc2ccccc2s1)[C@@H]1C[C@@H]2N(CCO)[C@]2(C)CCC[C@H](C)[C@H](O)[C@@H](C)C(=O)C(C)(C)[C@@H](O)CC(=O)O1 (stereo partly shown) [Compound 74]	–	23 ± 7 nM	630 ± 80 nM	11 ± 1 nM	7.9 ± 1 µM	3.5 ± 0.3 nM	12 ± 3 nM	–
C/C(=C\c1csc(CN)n1)[C@@H]1C[C@@H]2N(CCO)[C@]2(C)CCC[C@H](C)[C@H](O)[C@@H](C)C(=O)C(C)(C)[C@@H](O)CC(=O)O1 (stereo partly shown) [Compound 75]	–	93 ± 20 nM	2800 nM	65 ± 7 nM	> 60 µM	20 ± 3 nM	130 ± 20 nM	–
C/C(=C\c1csc(CCN)n1)[C@@H]1C[C@@H]2N(CCO)[C@]2(C)CCC[C@H](C)[C@H](O)[C@@H](C)C(=O)C(C)(C)[C@@H](O)CC(=O)O1 (stereo partly shown) [Compound 76]	–	8.6 ± 1 nM	45 ± 6 nM	15 ± 3 nM	9.1 ± 1 µM	3.8 ± 0.7 nM	50 ± 10 nM	–
CSc1nc(/C=C(\C)[C@@H]2C[C@@H]3N[C@]3(C)CCC[C@H](C)[C@H](O)[C@@H](C)C(=O)C(C)(C)[C@@H](O)CC(=O)O2)cs1 [Compound 77]	–	16 ± 4 nM	8.8 ± 1 nM	4 ± 1 nM	5 ± 1 µM	4.5 ± 0.5 nM	11 ± 3 nM	–
CSc1nc(/C=C(\C)[C@@H]2C[C@@H]3N(CCO)[C@]3(C)CCC[C@H](C)[C@H](O)[C@@H](C)C(=O)C(C)(C)[C@@H](O)CC(=O)O2)cs1 (stereo partly shown) [Compound 78]	–	75 ± 10 nM	55 ± 7 nM	28 ± 6 nM	14 ± 3 µM	42 ± 5 nM	60 ± 10 nM	–
CSc1nc(/C=C(\C)[C@@H]2C[C@@H]3N(CCN)[C@]3(C)CCC[C@H](C)[C@H](O)[C@@H](C)C(=O)C(C)(C)[C@@H](O)CC(=O)O2)cs1 (stereo partly shown) [Compound 79]	–	63 ± 3 nM	70 ± 10 nM	14 ± 2 nM	6.1 ± 0.1 µM	15 ± 4 nM	23 ± 6 nM	–
CSc1nc(/C=C(\C)[C@@H]2C[C@@H]3N(CCN=[N+]=[N-])[C@]3(C)CCC[C@H](C)[C@H](O)[C@@H](C)C(=O)C(C)(C)[C@@H](O)CC(=O)O2)cs1 (stereo partly shown) [Compound 80]	–	15 nM	3.2 ± 0.8 nM	13 ± 3 nM	5.4 ± 0.6 µM	7.3 ± 2 nM	22 ± 3 nM	–
CSc1nc(/C=C(\C)[C@@H]2C[C@@H]3N(CC4CC4)[C@]3(C)CCC[C@H](C)[C@H](O)[C@@H](C)C(=O)C(C)(C)[C@@H](O)CC(=O)O2)cs1 (stereo partly shown) [Compound 81]	–	15 ± 2 nM	18 ± 4 nM	18 ± 3 nM	5.1 ± 0.4 µM	9.5 ± 2 nM	16 ± 3 nM	–
CSc1cc(/C=C(\C)[C@@H]2C[C@@H]3N(CCO)[C@]3(C)CCC[C@H](C)[C@H](O)[C@@H](C)C(=O)C(C)(C)[C@@H](O)CC(=O)O2)nn1C (stereo partly shown) [Compound 82]	–	78 ± 4 nM	7.5 ± 2 nM	10 ± 1 nM	4.6 ± 0.9 µM	12 ± 2 nM	10 ± 2 nM	–
C/C(=C\c1csc(N)n1)[C@@H]1C[C@@H]2N(CCO)[C@]2(C)CCC[C@H](C)[C@H](O)[C@@H](C)C(=O)C(C)(C)[C@@H](O)CC(=O)O1 (stereo partly shown) [Compound 83]	–	290 ± 10 nM	3800 nM	330 ± 40 nM	13 ± 0.4 µM	220 ± 30 nM	280 ± 30 nM	–
C/C(=C\c1csc(C)n1)[C@@H]1C[C@@H]2O[C@@H]2CCC[C@H](C)[C@H](O)[C@@H](C)C(=O)C(C)(C)[C@@H](O)CC(=O)O1 [EpoA, epothilone A]	16 ± 2 µM	–	–	–	14 ± 3 µM	–	–	IC50 [1, 10]: 20 ± 5 nM; GI50 [1, 11]: 11 ± 2 nM; IC50 [4, 12]: 35 ± 5 nM; IC50 [5, 13]: 15 ± 2 nM; IC50 [2, 14]: 14 ± 4 nM; GI50 ([2]; MCF-7, 96 h at 37° C., Table 2): 10 ± 2 nM; IC50 [6, 15]: 14 ± 3 nM
C/C(=C\c1csc(C)n1)[C@@H]1C[C@@H]2O[C@]2(C)CCC[C@H](C)[C@H](O)[C@@H](C)C(=O)C(C)(C)[C@@H](O)CC(=O)O1 [EpoB, epothilone B, reference compound]	[…]	–	–	–	[…]	–	–	IC50 [1, 10]: 11 ± 3 nM; GI50 [1, 11]: 3.5 ± 0.7 nM; IC50 [4, 12]: 19 ± 4 nM; IC50 [5, 13]: 5.3 ± 0.7 nM; IC50 [2, 14]: 9.2 ± 2 nM; GI50 ([2]; MCF-7, 96 h at 37° C., Table 2): 5.5 nM; IC50 [6, 15]: 6.5 ± 2 nM
C/C(=C\c1csc(C)n1)[C@@H]1C/C=C\CCC[C@H](C)[C@H](O)[C@@H](C)C(=O)C(C)(C)[C@@H](O)CC(=O)O1 [EpoC, epothilone C, reference compound]	18 µM	–	–	–	–	–	–	GI50 [1, 11]: 110 ± 7 nM; GI50 ([2]; MCF-7, 96 h at 37° C., Table 2): 70 nM
C/C1=C/C[C@@H](/C(C)=C/c2csc(C)n2)OC(=O)C[C@H](O)C(C)(C)C(=O)[C@H](C)[C@@H](O)[C@@H](C)CCC1 [EpoD, epothilone D, reference compound]	18 µM	–	–	–	–	–	–	GI50 [1, 11]: 13 ± 4 nM; GI50 ([2]; MCF-7, 96 h at 37° C., Table 2): 14 ± 1 nM
C/C(=C\c1csc(C)n1)[C@@H]1C[C@@H]2O[C@]2(C)CCC[C@H](C)[C@H](O)[C@@H](C)C(=O)C(C)(C)[C@@H](O)CC(=O)N1 [Ixab, ixabepilone, reference compound]	4.5 ± 0.7 µM	–	–	–	–	–	–	GI50 ([1]; Homo sapiens, OVCAR-8, 96 h): 35 ± 10 nM; GI50 ([2]; Homo sapiens, MCF7, 96 h): 7 ± 1 nM
CC(=O)O[C@H]1C(=O)[C@@]2(C)[C@H]([C@H](OC(=O)c3ccccc3)[C@]3(O)C[C@H](OC(=O)[C@H](O)[C@@H](NC(=O)c4ccccc4)c4ccccc4)C(C)=C1C3(C)C)[C@]1(OC(C)=O)CO[C@@H]1C[C@@H]2O [PTX, paclitaxel, reference compound]	–	10 ± 2 nM	–	7.8 ± 2 nM	5 ± 1 µM	–	–	GI50 ([1]; Homo sapiens, OVCAR-8, 96 h): 6.5 ± 2 nM; IC50 ([4]; Homo sapiens, NCI/ADR-RES (overexpresses P-glycoprotein), IC50, 96 h at 37° C., Table 3): 4200 nM; IC50 ([5]; Homo sapiens, MDA-MB-435, IC50, 96 h at 37° C., Table 3): 4 ± 1 nM; GI50 ([2]; Homo sapiens, MCF7, 96 h): 8.5 nM; IC50 ([6]; Homo sapiens, SNB-75, IC50, 96 h at 37° C., Table 3): 15 nM
